Results from patent US20220204531A1, “DIBORONIC ACID COMPOUNDS AND METHODS OF MAKING AND USING THEREOF” (The Regents of The University of California, priority 2020, published 2022).
Values joined by “and” are separate entries in the source; they are usually repeats but may differ in a detail not shown here. Identical values can stand only once. Like-named read-outs stand apart in the source and are kept apart here. One block for each compound: values may come before it.

What was measured:
[1] = Dissociation constant (Kd) by UV absorbance titration at 280 nm, galactose; type: binding; settings: 1 mM DBA2+Br, 50 mM phosphate buffer pH 7.4
Protocol: (§1) The affinity and selectivity of DBA+ to glucose were then tested by comparing affinity with other five mono- or di-saccharides, particularly fructose, galactose, maltose, sucrose, and lactose. The UV absorption changes at 280 nm of DBA+ with the increase of sugar concentration was used for the affinity calculation. The absorbance values of 1 mM DBA+Br at 280 nm as function of sugar concentrations from 0 to 512 mM were measured in 50 mM Phosphate PBS (pH=7.4).
(§2) where sqrt refers to the square root 11 Equation (11) is used for non-linear fitting in Origin to obtain the Kd values.
(§3) The disassociation constant (Kd) of DBA2+ was calculated through non-linear curve fitting according to previous work (Stootman, et al., Analyst, 131:1145-1151 (2006)).

[2] = Dissociation constant (Kd) by UV absorbance titration at 280 nm, fructose; type: binding; settings: 1 mM DBA2+Br, 50 mM phosphate buffer pH 7.4
Protocol: as §1, §2, §3

[3] = Dissociation constant (Kd) by UV absorbance titration at 280 nm, sucrose; type: binding; settings: 1 mM DBA2+Br, 50 mM phosphate buffer pH 7.4
Protocol: as §1, §2, §3

[4] = Dissociation constant (Kd) by UV absorbance titration at 280 nm, glucose; type: binding; settings: 1 mM DBA2+Br, 50 mM phosphate buffer pH 7.4
Protocol: 100 μL of glucose aqueous solutions with two-fold serial dilutions from 1024 mM to 0.5 mM were added into a 96 well microplate. Then 100 μL of 2 mM DBA2+Br in 100 mM phosphate buffer (pH=7.4) was added. After shaking for 10 s and waiting for 30 min, the absorbance of each well at 280 nm was recorded on a microplate reader.
as §1
The titration data was plotted. The disassociation equation for complex DBAG is as follows: […]
where DBAG refers to all three possible complexes, DBA2+G, DBA1+G and DBA-G, and DBA2 refers to all the unbound molecules, DBA2+, DBA1+ and DBA0.
as §2, §3

[5] = Dissociation constant (Kd) by UV absorbance titration at 280 nm, maltose; type: binding; settings: 1 mM DBA2+Br, 50 mM phosphate buffer pH 7.4
Protocol: as §1, §2, §3

[6] = pKa measurement by absorbance at 280 nm as a function of pH; type: physicochemical; settings: for pKa: aqueous buffer solutions in 96-well microplate, 1 mM DBA2+Br, absorbance at 280 nm vs pH
Protocol: 100 mM buffer solutions for titration from pH 4 to pH 11.5 were prepared with different buffer systems to ensure the accuracy of pH for the following tests. NaAc/HAc was prepared for pH 4.05, 4.53, 5.03 and 5.53; Na2HPO4/NaH2PO4 was prepared for pH 6.00, 6.51, 6.99 and 7.51; NaB(OH)4/B(OH)3 was prepared for pH 8.05, 8.56 9.03 and 9.53; Na2CO3/NaHCO3 was prepared for pH 10.01, 10.54, 11.01 and 11.49.
50 μL of buffer solutions at different pH was added into 96 microplate wells. Then 50 μL of 2 mM DBA2+Br or a mixture of 2 mM DBA2+Br and 400 mM glucose in water was added to each well.
After shaking for 10 s and waiting for 10 min, the absorbance of each well at 280 nm was recorded on a microplate reader.
Due to the interaction between borate and glucose, the pH of the borate buffer solution is changed and thus the data for DBA2+Br/Glucose from pH 8 to 9.5 were abandoned. The rest of the data was plotted in Origin. The equilibrium equation for DBA2+ is as follows: […]
Then equation (4) is used for non-linear fitting in Origin, and pKa is defined as the pH at which half of the boronic acid is in the anionic state:
The same non-linear curve fitting also was used for the determination of pKa of DBAG2+G which has equilibrium equation as follow: […]
The pKa of DBA2+ before and after glucose binding was determined based on the differences in absorption spectra upon formation of tetrahedral borate anion in high pH media (Springsteen, et al., Tetrahedron, 58:5291-5300 (2002)).
pKa values were determined by curve fitting the changes in absorbance as a function of pH (FIG. 1).

[7] = Dissociation constant (Kd) by UV absorbance titration at 280 nm, lactose; type: binding; settings: 1 mM DBA2+Br, 50 mM phosphate buffer pH 7.4
Protocol: as §1, §2, §3

[8] = maximum physiological or therapeutic plasma concentration, cited from earlier work
[9] = Effect of interference sugars on DBA2+ based conductimetric sensor (solution resistance); settings: interference sugar 1 mM (maltose 10 mM), relative to resistance with glucose alone
Protocol: To a reservoir in a device set up as depicted shown in FIG. 3, 1 mL of the initial testing solution (2 mM DBA2+P and 2.5 mM Na3PO4, pH=7.6) was added. Direct current voltage is 0 mV due to the same material for two electrodes. Alternating current voltage was set at 20 mV, and the impedance was scanned vs. frequency from 10 Hz to 10 MHz (FIGS. 4A-4C). At 0.1 MHz, the capacitive reactance is very small compared to the resistance (R) of the solution, and thus this frequency was used for the following tests.
To the testing solution, trace quantities (2-5 μL) of a concentrated (0.5 or 2 M) glucose aqueous solution were continuously added. Glucose solutions were added every 30 minutes with concentrations spanning the diabetes-relevant range, (i.e. [glucose]=0-30 mM). The resistance of solution vs. time was collected for 30 min after each addition. After adding glucose to 30 mM, the testing solution was diluted to 12 mM by adding 1.5 mL of fresh testing solution. 1.5 mL was then discharged after mixing and the resistance of the remaining 1 mL solution was monitored.
Interference effects from other sugars, i.e. fructose, galactose, maltose, and lactose, were examined. Tests were performed at two different glucose concentrations typically experienced in diabetes, 5 mM (i.e. a physiological concentration of glucose) and 20 mM (i.e. a pathophysiological concentration of glucose) in 1 mL of testing solution. In these tests, interferent concentrations were higher or equal to 2.5 times the maximum plasma concentration (MPC). To the testing solution containing glucose, 2 μL or 5 μL of one of the interference solutions (containing fructose, galactose, maltose, or lactose) were added and the solution resistance (R) was monitored. The interference by 1 mM fructose or galactose was tested due to the considerable high affinity compared to the other […].

[10] = presence of 200 mM glucose (DBA-G), read-out: pKa in the presence of glucose
[11] = testing solution with 5 mM glucose
[12] = testing solution with 20 mM glucose

- Kd [1]: 16000 µM
- Kd ([1]; listed as Formula III): ~16000 µM
- Kd [2]: 1700 µM
- Kd ([2]; listed as Formula III): ~1700 µM
- Kd [4]: 900 ± 100 µM
- pKa1 ([6]; absence of glucose): 9.0
- pKa2 ([6]; absence of glucose): 9.7
- pKa ([6]; absence of glucose, read-out: pKa): 9.4
- pKa [6, 10]: 6.3
- pKa1 ([6]; presence of 200 mM glucose): 5.9
- pKa2 ([6]; presence of 200 mM glucose): 6.9
- change in pKa for DBA2+ and DBA-G ([6]; upon glucose binding, centers around pH 7.4): ~3 unit
SMILES: C[N+](C)(Cc1ccc(C[N+](C)(C)Cc2ccccc2B(O)O)cc1)Cc1ccccc1B(O)O [DBA2+]
- Kd value for sucrose [3]: could not be determined due to their low affinity
- Kd value for maltose [5]: could not be determined due to their low affinity
- Kd value for lactose [7]: could not be determined due to their low affinity

SMILES: C[N+]1(C)Cc2ccc(cc2)C[N+](C)(C)Cc2ccccc2[B-]2(O)OC3OC4CO[B-](O)(OC4C(O)C3O2)c2ccccc2C1 (centres unmarked) [DBA-G]
- pKa [6, 10]: 6.3

SMILES: O=C(CO)[C@@H](O)[C@H](O)[C@H](O)CO [Fructose, fructose]
- Max plasma [sugar] [8]: 0.133 mM
- Max plasma [sugar] ([8]; listed as fructose): 0.13 mM
- Resistance increase [9, 11]: 3% and 2.9%
- Resistance increase [9, 12]: −0.3%

SMILES: O=C[C@H](O)[C@@H](O)[C@@H](O)[C@H](O)CO [Galactose, galactose]
- Max plasma [sugar] [8]: 0.28 mM
- Resistance increase [9, 11]: 1.4%
- Resistance increase [9, 12]: 0.6%

SMILES: OC[C@H]1O[C@@H](O[C@H]2[C@H](O)[C@@H](O)C(O)O[C@@H]2CO)[C@H](O)[C@@H](O)[C@H]1O (some centres unmarked) [Lactose, lactose]
- Max plasma [sugar] [8]: 0.015 mM
- Resistance increase [9, 11]: 0.2%
- Resistance increase [9, 12]: 1.6%

SMILES: OC[C@H]1O[C@H](O[C@H]2[C@H](O)[C@@H](O)[C@H](O)O[C@@H]2CO)[C@H](O)[C@@H](O)[C@@H]1O [Maltose, maltose]
- Max plasma [sugar] [8]: 3.5 mM
- Resistance increase [9, 11]: 0.4%
- Resistance increase [9, 12]: 1.6%
